Measured values from US10501421B1, “Substituted benzimidazoles as modulators of Ras signaling” (VANDERBILT UNIVERSITY, priority 2017, dated 2019).
Where a name gives a salt, the structure may show the parent alone.

Experiments:
[1] = target: Ras GEF SOS (Son of Sevenless) (Homo sapiens, UniProt Q07889); experiment: SOS-mediated nucleotide exchange on Ras (BODIPY-GDP fluorescence); type: biochemical; settings: SOS-mediated exchange of BODIPY-GDP for GTP on Ras
Outline: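 Ras loaded with BODIPY-GDP was mixed in buffer with test compound, then GTP and SOS. Fluorescence change from labeled GDP/GTP exchange was followed over time, and rates came from single-exponential fits. EC50 came from a four-parameter fit of mean rate against compound concentration.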

Son of Sevenless (SOS) = target: T1, Son of Sevenless (SOS) (Homo sapiens, UniProt Q07889); experiment: Binding to SOS, fluorescence polarization anisotropy (FPA) probe displacement; settings: displacement of FITC-conjugated probe (Example 285), affinity calculated from IC50
T1 sequence (Q07889 564-1049 limits assumed): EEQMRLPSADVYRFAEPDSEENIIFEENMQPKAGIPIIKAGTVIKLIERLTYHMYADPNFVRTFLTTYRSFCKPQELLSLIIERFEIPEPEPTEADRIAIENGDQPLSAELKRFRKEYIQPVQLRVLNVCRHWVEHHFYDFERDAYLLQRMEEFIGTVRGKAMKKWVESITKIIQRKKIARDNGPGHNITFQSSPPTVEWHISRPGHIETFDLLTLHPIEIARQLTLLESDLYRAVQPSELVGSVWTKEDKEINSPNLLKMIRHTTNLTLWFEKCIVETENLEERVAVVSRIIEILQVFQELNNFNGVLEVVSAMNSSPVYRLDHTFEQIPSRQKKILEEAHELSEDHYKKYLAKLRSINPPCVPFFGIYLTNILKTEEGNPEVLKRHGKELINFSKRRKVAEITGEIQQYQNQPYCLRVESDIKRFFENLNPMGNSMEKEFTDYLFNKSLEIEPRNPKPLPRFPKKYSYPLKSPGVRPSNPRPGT
Outline: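 A FITC-conjugated probe compound was incubated with SOS in buffer, and its displacement was tracked as a change in fluorescence anisotropy across a test-compound dose range. IC50 came from a four-parameter variable-slope fit, and binding affinity was calculated from it.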

Chain of Ras GEF SOS (Son of Sevenless) (P01112 1-166 partner limits assumed, one chain of several): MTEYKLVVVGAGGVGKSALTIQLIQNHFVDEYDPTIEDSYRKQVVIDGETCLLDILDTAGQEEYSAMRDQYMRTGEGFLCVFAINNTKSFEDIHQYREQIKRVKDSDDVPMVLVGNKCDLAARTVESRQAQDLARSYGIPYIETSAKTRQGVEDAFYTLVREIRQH

Row | SMILES | EC50 [1] [µM] | Ki (Son of Sevenless (SOS)) [µM]
1 | Cc1cc(Cn2c(N3CCNCC3)nc3c(-n4ccc(N)c4)cc(Cl)cc32)cc(C)c1F [Example 279, 1-[6-chloro-1-[(4-fluoro-3,5-dimethylphenyl)methyl]-2-piperazin-1-ylbenzimidazol-4-yl]pyrrol-3-amine] | 1 to 5 | < 0.5
2 | Cc1cc(Cn2c(N3CCNCC3)nc3c(OCCN(C)C)cccc32)ccc1F [Example 210, 2-((1-(4-fluoro-3-methylbenzyl)-2-(piperazin-1-yl)-1H-benzo[d]imidazol-4-yl)oxy)-N,N-dimethylethan-1-amine] | < 1 | > 5
3 | CCCN1CC[C@@H](C(=O)c2ccccc2)C1c1cc(Cl)cc2c1nc(N1CCNCC1)n2Cc1ccc(F)c(Cl)c1 (stereo in doubt) [Example 154, ((2S,3R)-2-(6-chloro-1-(3-chloro-4-fluorobenzyl)-2-(piperazin-1-yl)-1H-benzo[d]imidazol-4-yl)-1-propylpyrrolidin-3-yl)(phenyl)methanone trifluoroacetate] | 1 to 5 | 1 to 5
4 | Cc1cc(Cn2c(NCC3CNC3)nc3c(N4CCNCC4)cc(Cl)cc32)cc(C)c1F [Example 309, N-(azetidin-3-ylmethyl)-6-chloro-1-(4-fluoro-3,5-dimethylbenzyl)-4-(piperazin-1-yl)-1H-benzo[d]imidazol-2-amine] | 1 to 5 | < 0.5
5 | NCCNCc1cc(Cl)cc2c1nc(N1CCNCC1)n2Cc1ccc(F)c(Cl)c1 [Example 137, N^1-((6-chloro-1-(3-chloro-4-fluorobenzyl)-2-(piperazin-1-yl)-1H-benzo[d]imidazol-4-yl)methyl)ethane-1,2-diamine trifluoroacetate] | 1 to 5 | 1 to 5
6 | Cc1cc2c(nc(N3CCNCC3)n2Cc2ccc(F)c(Cl)c2)c(CCN)c1C [Example 101, 2-(1-(3-chloro-4-fluorobenzyl)-5,6-dimethyl-2-(piperazin-1-yl)-1H-benzo[d]imidazol-4-yl)ethan-1-amine trifluoroacetate] | 1 to 5 | 1 to 5
7 | Clc1ccc(Cn2c(N3CCNCC3)nc3ncccc32)cc1 [Example 251, 1-(4-chlorobenzyl)-2-(piperazin-1-yl)-1H-imidazo[4,5-b]pyridine] | 30 to 100 | > 5
8 | Cc1cc(Cn2c(NCCN)nc3c(-c4ccccc4OC(C)C)cc(Cl)cc32)cc(C)c1F [Example 308, N^1-(6-chloro-1-(4-fluoro-3,5-dimethylbenzyl)-4-(2-isopropoxyphenyl)-1H-benzo[d]imidazol-2-yl)ethane-1,2-diamine] | 1 to 5 | < 0.5
9 | Cc1ccc2nc(N3CCNCC3)n(Cc3ccc(F)c(Cl)c3)c2c1 [Example 61, 1-(3-chloro-4-fluorobenzyl)-6-methyl-2-(piperazin-1-yl)-1H-benzo[d]imidazole trifluoroacetate] | 1 to 5 | 1 to 5
10 | CCN(CC)Cc1cc(Cl)cc2c1nc(N1CCNCC1)n2Cc1ccc(F)c(Cl)c1 [Example 136, N-((6-chloro-1-(3-chloro-4-fluorobenzyl)-2-(piperazin-1-yl)-1H-benzo[d]imidazol-4-yl)methyl)-N-ethylethanamine trifluoroacetate] | < 1 | 1 to 5
11 | Cc1cc2nc(NCCN)n(Cc3ccc(F)c(Cl)c3)c2cc1Br [Example 64, N^1-(6-bromo-1-(3-chloro-4-fluorobenzyl)-5-methyl-1H-benzo[d]imidazol-2-yl)ethane-1,2-diamine trifluoroacetate] | 1 to 5 | 0.5 to 1
12 | Cc1cc2c(nc(N3CCNCC3)n2Cc2ccc(F)c(C)c2)c(CNC(C)C)n1 [Example 233, N-((1-(4-fluoro-3-methylbenzyl)-6-methyl-2-(piperazin-1-yl)-1H-imidazo[4,5-c]pyridin-4-yl)methyl)propan-2-amine] | 5 to 30 | > 5
13 | Cc1cc2c(cc1C)N(Cc1ccc(F)c(Cl)c1)C1=NCCCN12 [Example 213, 10-(3-chloro-4-fluorobenzyl)-7,8-dimethyl-2,3,4,10-tetrahydrobenzo[4,5]imidazo[1,2-a]pyrimidine] | 1 to 5 | > 5
14 | Cc1cc2nc(N3CCNCC3)n(Cc3cc(Cl)c(F)c(Cl)c3)c2cc1C [Example 277, 1-[(3,5-dichloro-4-fluorophenyl)methyl]-5,6-dimethyl-2-piperazin-1-ylbenzimidazole] | 1 to 5 | > 5
15 | Cc1cc(N(C)CCN(C)C)c2nc(N3CCNCC3)n(Cc3cc(C)c(F)c(C)c3)c2c1 [Example 191, N^1-(1-(4-fluoro-3,5-dimethylbenzyl)-6-methyl-2-(piperazin-1-yl)-1H-benzo[d]imidazol-4-yl)-N^1,N^2,N^2-trimethylethane-1,2-diamine trifluoroacetate] | 1 to 5 | 0.5 to 1
16 | Cc1ccccc1C#Cc1ccccc1-c1cc(Cl)cc2c1nc(N1CCNCC1)n2Cc1cc(C)c(F)c(C)c1 [Example 185, 6-chloro-1-(4-fluoro-3,5-dimethylbenzyl)-2-(piperazin-1-yl)-4-(2-(o-tolylethynyl)phenyl)-1H-benzo[d]imidazole trifluoroacetate] | 5 to 30 | > 5
17 | Cc1cc2nc(N3CCNCC3)n(Cc3ccc(Br)c(Cl)c3)c2cc1C [Example 39, 1-(4-bromo-3-chlorobenzyl)-5,6-dimethyl-2-(piperazin-1-yl)-1H-benzo[d]imidazole trifluoroacetate] | 1 to 5 | > 5
18 | Cc1cc(-c2ccc(CN)cc2)c2nc(N3CCNCC3)n(Cc3cc(C)c(F)c(C)c3)c2c1 [Example 318, (4-(1-(4-fluoro-3,5-dimethylbenzyl)-6-methyl-2-(piperazin-1-yl)-1H-benzo[d]imidazol-4-yl)phenyl)methanamine] | < 1 | < 0.5
19 | Cc1cc(OCCN2CCCC2)c2nc(N3CCNCC3)n(Cc3cc(C)c(F)c(C)c3)c2c1 [Example 316, 1-(4-fluoro-3,5-dimethylbenzyl)-6-methyl-2-(piperazin-1-yl)-4-(2-(pyrrolidin-1-yl)ethoxy)-1H-benzo[d]imidazole] | < 1 | 1 to 5
20 | Cc1cc(OC2CCOC2)c2nc(N3CCNCC3)n(Cc3cc(C)c(F)c(C)c3)c2c1 (centres unmarked) [Example 204, 1-(4-fluoro-3,5-dimethylbenzyl)-6-methyl-2-(piperazin-1-yl)-4-((tetrahydrofuran-3-yl)oxy)-1H-benzo[d]imidazole] | < 1 | 1 to 5
21 | Fc1ccc(CN2C3=NCCCN3c3cc(Cl)ccc32)cc1Cl [Example 214, 7-chloro-10-(3-chloro-4-fluorobenzyl)-2,3,4,10-tetrahydrobenzo[4,5]imidazo[1,2-a]pyrimidine] | 30 to 100 | > 5
22 | Cc1cc2c(nc(N3CCNCC3)n2Cc2ccc(F)c(C)c2)c(CNCCC(C)C)n1 [Example 234, N-((1-(4-fluoro-3-methylbenzyl)-6-methyl-2-(piperazin-1-yl)-1H-imidazo[4,5-c]pyridin-4-yl)methyl)-3-methylbutan-1-amine] | 5 to 30 | > 5
23 | Cc1ccc2nc(N3CCNCC3)n(Cc3cc(C)c(F)c(C)c3)c2c1 [Example 323, 1-(4-fluoro-3,5-dimethylbenzyl)-6-methyl-2-(piperazin-1-yl)-1H-benzo[d]imidazole] | < 1 | 1 to 5
24 | Cc1cc2c(nc(N3CCNCC3)n2Cc2ccc(F)c(Cl)c2)c(-c2ccnn2-c2ccc(Br)cc2)c1C [Example 172, 4-(1-(4-bromophenyl)-1H-pyrazol-5-yl)-1-(3-chloro-4-fluorobenzyl)-5,6-dimethyl-2-(piperazin-1-yl)-1H-benzo[d]imidazole trifluoroacetate] | 1 to 5 | 1 to 5
25 | CCCN1CC[C@@H](C(=O)c2ccccc2)C1c1cc(Cl)cc2c1nc(N1CCNCC1)n2Cc1cc(C)c(F)c(C)c1 (stereo in doubt) [Example 149, ((2S,3R)-2-(6-chloro-1-(4-fluoro-3,5-dimethylbenzyl)-2-(piperazin-1-yl)-1H-benzo[d]imidazol-4-yl)-1-propylpyrrolidin-3-yl)(phenyl)methanone trifluoroacetate] | 5 to 30 | 1 to 5
26 | Cc1cc2c(cc1Br)nc(N1CCNCC1)n2Cc1ccc(F)c(Cl)c1 [Example 70, 5-bromo-1-(3-chloro-4-fluorobenzyl)-6-methyl-2-(piperazin-1-yl)-1H-benzo[d]imidazole trifluoroacetate] | 1 to 5 | 1 to 5
27 | Cc1cc2nc(NCCN)n(Cc3cccc(Br)c3)c2cc1C [Example 35, N^1-(1-(3-bromobenzyl)-5,6-dimethyl-1H-benzo[d]imidazol-2-yl)ethane-1,2-diamine trifluoroacetate] | 1 to 5 | 1 to 5
28 | Cc1cc2c(nc(N3CCNCC3)n2Cc2ccc(F)c(Cl)c2)c(-c2ccnn2-c2ccccc2)c1C [Example 171, 1-(3-chloro-4-fluorobenzyl)-5,6-dimethyl-4-(1-phenyl-1H-pyrazol-5-yl)-2-(piperazin-1-yl)-1H-benzo[d]imidazole trifluoroacetate] | 1 to 5 | 1 to 5
